Assay results: PMC7969932, “Population pharmacokinetics and dose optimization of vancomycin in neonates” (Scientific Reports, 2021)

Tests used:
[1] = Css,trough 15–20 μg/mL, neonates; cited from earlier work
Source text: (§1) There are numerous approaches to determining the adequate dosage regimen of vancomycin in neonates. To reflect PD and PK, area-under-the-curve concentrations versus time to the minimum inhibitory concentrations (AUC: MIC) can be used.

[2] = cited from earlier work
Source text: as §1

[3] = Population pharmacokinetic modeling of vancomycin (NONMEM, one-compartment, first-order elimination; bootstrap, pc-VPC)
Procedure: For the analysis of vancomycin population pharmacokinetic parameters, nonlinear mixed-effect modeling was performed using NONMEM ver. 7.3 (Icon Development Solutions, Ellicott City, MD, USA) in conjunction with Perl Speaks NONMEM (PsN ver. 4.4.0), Pirana (ver. 2.9.7), and Xpose (ver. 4.0) contained in the R software package (ver. 3.5.0; http://www.r-project.org). The population analysis was conducted using the first-order conditional estimation method (FOCE) with ε–η interaction (FOCE INTER). One- and two-compartment models with first-order elimination were evaluated as potential structural pharmacokinetic models. The fixed-effect parameters were total clearance (CL) and volume of distribution (V) for the one-compartment model, and total CL, central V (V1), peripheral V (V2), and inter-compartmental CL (Q) for the two-compartment model. Possible correlations among the interindividual variability for pharmacokinetic parameters in the model were assessed by the OMEGA BLOCK functionality. Allometric scaling was applied to CL and isometric scaling was applied to V to standardize the pharmacokinetic parameters. The final allometric model was as follows: 3 CL=θCL×(WTi/70)^0.75 4 V=θV×(WTi/70)^1 where CL is the clearance in the ith individual with body weight WTi; θCL is the typical CL value in a standardized adult (70 kg); and θv is the typical V in a standardized adult (70 kg). Interindividual variability in the PK parameters was analyzed using exponential and power models. Covariance between interindividual variability was estimated using a variance–covariance matrix. Residual variability was attempted using additive, proportional, and combined models.
Covariates were investigated for the population modeling using linear, proportional, power, and exponential functions. […] When objective function value was decreased by at least 3.84 (χ^2-test, P < 0.05) from the structural model during the forward selection, the covariate was included in the model. All covariates that met the criteria were added to develop the full model. Then, during backward elimination, any covariate with an increase of at least 6.64 (χ^2-test, P < 0.01) was kept in the model. The categorical covariates tested were as follows: sex (where female = 1, male = 0), and types of delivery (where NsvD = 0, Csec = 1). The continuous covariates tested were body weight, blood urea nitrogen, SCr, protein, albumin, neutrophil, AST, ALT, CRP, WBC, height, PMA, PNA, CLcr, and gestational age.
Model validation was performed via three methods: graphical diagnostics using a goodness-of-fit plot, bootstrapping, and a pc-VPC. Individual observed vs. individual-predicted values and conditional weighted residual vs. time or population-predicted values or individual-predicted values were plotted using R for NONMEM. Bootstrap datasets were repeated 1,000 times using the final model; the pc-VPC was performed as a diagnostic plot.

[4] = 1000 resampled data sets (993 successful), per 70 kg

CN[C@H](CC(C)C)C(=O)N[C@H]1C(=O)N[C@@H](CC(N)=O)C(=O)N[C@H]2C(=O)N[C@H]3C(=O)N[C@H](C(=O)N[C@H](C(=O)O)c4cc(O)cc(O)c4-c4cc3ccc4O)[C@H](O)c3ccc(c(Cl)c3)Oc3cc2cc(c3O[C@@H]2O[C@H](CO)[C@@H](O)[C@H](O)[C@H]2O[C@H]2C[C@](C)(N)[C@H](O)[C@H](C)O2)Oc2ccc(cc2Cl)[C@H]1O [vancomycin]
Nephrotoxicity [1]: higher nephrotoxicity | Css,trough that could satisfy AUC0-24/MIC ≥ 400 with less toxicity [2]: 5 to 15 µg/mL | Trough concentrations that can achieve AUC0-24/MIC ≥ 400 [2]: around 10 mg/L | θ1, typical value of clearance, Bootstrap median (95% CI) [3, 4]: 2.07 (1.94, 2.21) L/h | θ4, typical value of volume of distribution, Bootstrap median (95% CI) [3, 4]: 45.7 (41.6, 50.6) L | θ2, power of PMA/31.7 on clearance, Estimate (%RSE) ([3]; final model): 0.795 (26%) | θ3, power of CLcr/50.3 on clearance, Estimate (%RSE) ([3]; final model): 0.741 (6%) | θ4, typical value of volume of distribution (TVV), Estimate (%RSE) ([3]; standardized to 70 kg (power 1), final model): 45.6 (5%) L
